pIC50: −log10 of the molar value.
Tested on: KRAS PDC multicell spheroid viability
Test: Anticancer human tumor 521955-158-R6-J3-PDC patient-derived pancreatic carcinoma cell line growth inhibition [KRAS2]
Conditions: for pIC50: curve of first compound; for viability, T/C: stronger effect = lower value
In short: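 Combination screen of spheroid viability in tumor-cell co-cultures with endothelial (HUVEC) and mesenchymal stem cell stroma. Each agent was tested in half-log dilutions, topping at clinical Cmax or at 10 microM without a known Cmax.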

[1] = second compound 0.1 µM, first compound 0.00316 µM
[2] = second compound 0.1 µM, first compound 0.01 µM
[3] = second compound 0.1 µM, first compound 0.0316 µM
[4] = second compound 0.316 µM, first compound 0.00316 µM
[5] = second compound 0.316 µM, first compound 0.01 µM
[6] = second compound 0.316 µM, first compound 0.0316 µM
[7] = second compound 1 µM, first compound 0.00316 µM
[8] = second compound 1 µM, first compound 0.01 µM
[9] = second compound 1 µM, first compound 0.0316 µM
[10] = second compound 3.16 µM, first compound 0.00316 µM
[11] = second compound 3.16 µM, first compound 0.01 µM
[12] = second compound 3.16 µM, first compound 0.0316 µM
[13] = second compound 10 µM, first compound 0.00316 µM
[14] = second compound 10 µM, first compound 0.01 µM
[15] = second compound 10 µM, first compound 0.0316 µM
[16] = second compound 0.1 µM, first compound 0.1 µM
[17] = second compound 0.1 µM, first compound 0.316 µM
[18] = second compound 0.1 µM, first compound 1 µM
[19] = second compound 0.316 µM, first compound 0.1 µM
[20] = second compound 0.316 µM, first compound 0.316 µM
[21] = second compound 0.316 µM, first compound 1 µM
[22] = second compound 1 µM, first compound 0.1 µM
[23] = second compound 1 µM, first compound 0.316 µM
[24] = second compound 1 µM, first compound 1 µM
[25] = second compound 3.16 µM, first compound 0.1 µM
[26] = second compound 3.16 µM, first compound 0.316 µM
[27] = second compound 3.16 µM, first compound 1 µM
[28] = second compound 10 µM, first compound 0.1 µM
[29] = second compound 10 µM, first compound 0.316 µM
[30] = second compound 10 µM, first compound 1 µM
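Note: drug exposure lasted seven days.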
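Throughout, for viability, T/C: 100% = DMSO vehicle wells and lower means fewer viable cells.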

CC(=O)Nc1cccc(-n2c(=O)n(C3CC3)c(=O)c3c(Nc4ccc(I)cc4F)n(C)c(=O)c(C)c32)c1 + COc1cc2nc(C)nc(NC(C)c3cc(N)cc(C(F)(F)F)c3)c2cc1OC1CCOC1
pIC50 (second compound 0.1 µM): 7.78
pIC50 (second compound 0.316 µM): 7.99
pIC50 (second compound 1 µM): 7.91
pIC50 (second compound 3.16 µM): 8.21
pIC50 (second compound 10 µM): > 10.00
viability, T/C (second compound 0.1 µM, first compound 0.0001 µM): 88%
viability, T/C (second compound 0.1 µM, first compound 0.000316 µM): 88.4%
viability, T/C (second compound 0.1 µM, first compound 0.001 µM): 92.4%
viability, T/C [1]: 81.7%
viability, T/C [2]: 60.7%
viability, T/C [3]: 36.9%
viability, T/C (second compound 0.316 µM, first compound 0.0001 µM): 88.1%
viability, T/C (second compound 0.316 µM, first compound 0.000316 µM): 83.6%
viability, T/C (second compound 0.316 µM, first compound 0.001 µM): 75.3%
viability, T/C [4]: 67.1%
viability, T/C [5]: 48.8%
viability, T/C [6]: 37.4%
viability, T/C (second compound 1 µM, first compound 0.0001 µM): 81.4%
viability, T/C (second compound 1 µM, first compound 0.000316 µM): 86.6%
viability, T/C (second compound 1 µM, first compound 0.001 µM): 81.1%
viability, T/C [7]: 67.5%
viability, T/C [8]: 55.4%
viability, T/C [9]: 31.8%
viability, T/C (second compound 3.16 µM, first compound 0.0001 µM): 72.6%
viability, T/C (second compound 3.16 µM, first compound 0.000316 µM): 79.3%
viability, T/C (second compound 3.16 µM, first compound 0.001 µM): 76.7%
viability, T/C [10]: 54.6%
viability, T/C [11]: 45.5%
viability, T/C [12]: 21.8%
viability, T/C (second compound 10 µM, first compound 0.0001 µM): 20.7%
viability, T/C (second compound 10 µM, first compound 0.000316 µM): 21.2%
viability, T/C (second compound 10 µM, first compound 0.001 µM): 10.6%
viability, T/C [13]: 1.6%
viability, T/C [14]: 4.51%
viability, T/C [15]: 2.2%

CC(C)NCC(C(=O)N1CCN(c2ncnc3c2C(C)CC3O)CC1)c1ccc(Cl)cc1 (stereo not given) + CC1OCC2(CCN(c3cnc(Sc4ccnc(N)c4Cl)c(N)n3)CC2)C1N
pIC50 (second compound 0.1 µM): < 5.00
pIC50 (second compound 0.316 µM): < 5.00
pIC50 (second compound 1 µM): < 5.00
pIC50 (second compound 3.16 µM): 5.87
pIC50 (second compound 10 µM): 6.19
viability, T/C [3]: 86.9%
viability, T/C [16]: 77.1%
viability, T/C [17]: 68.8%
viability, T/C [18]: 68.7%
viability, T/C (second compound 0.1 µM, first compound 3.16 µM): 61.7%
viability, T/C (second compound 0.1 µM, first compound 10 µM): 56%
viability, T/C [6]: 84.3%
viability, T/C [19]: 71.4%
viability, T/C [20]: 61.1%
viability, T/C [21]: 63.5%
viability, T/C (second compound 0.316 µM, first compound 3.16 µM): 60.2%
viability, T/C (second compound 0.316 µM, first compound 10 µM): 48.9%
viability, T/C [9]: 78.1%
viability, T/C [22]: 74.6%
viability, T/C [23]: 60.7%
viability, T/C [24]: 54.7%
viability, T/C (second compound 1 µM, first compound 3.16 µM): 50.9%
viability, T/C (second compound 1 µM, first compound 10 µM): 51.7%
viability, T/C [12]: 86.9%
viability, T/C [25]: 78.7%
viability, T/C [26]: 59.7%
viability, T/C [27]: 53%
viability, T/C (second compound 3.16 µM, first compound 3.16 µM): 47.5%
viability, T/C (second compound 3.16 µM, first compound 10 µM): 43.3%
viability, T/C [15]: 102%
viability, T/C [28]: 73.8%
viability, T/C [29]: 56.7%
viability, T/C [30]: 43.9%
viability, T/C (second compound 10 µM, first compound 3.16 µM): 44.2%
viability, T/C (second compound 10 µM, first compound 10 µM): 34.1%

CCN1CCN(Cc2ccc(Nc3ncc(F)c(-c4cc(F)c5nc(C)n(C(C)C)c5c4)n3)nc2)CC1 + CC1OCC2(CCN(c3cnc(Sc4ccnc(N)c4Cl)c(N)n3)CC2)C1N
pIC50 (second compound 0.1 µM): < 6.00
pIC50 (second compound 0.316 µM): < 6.00
pIC50 (second compound 1 µM): < 6.00
pIC50 (second compound 3.16 µM): < 6.00
pIC50 (second compound 10 µM): < 6.00
viability, T/C [1]: 81.3%
viability, T/C [2]: 79.9%
viability, T/C [3]: 73%
viability, T/C [16]: 68.4%
viability, T/C [17]: 76%
viability, T/C [18]: 88.2%
viability, T/C [4]: 101%
viability, T/C [5]: 84.1%
viability, T/C [6]: 82.3%
viability, T/C [19]: 69.2%
viability, T/C [20]: 71.8%
viability, T/C [21]: 85.3%
viability, T/C [7]: 94.5%
viability, T/C [8]: 91.2%
viability, T/C [9]: 97%
viability, T/C [22]: 82.1%
viability, T/C [23]: 78.8%
viability, T/C [24]: 90.1%
viability, T/C [10]: 113%
viability, T/C [11]: 109%
viability, T/C [12]: 84.4%
viability, T/C [25]: 78.7%
viability, T/C [26]: 83.6%
viability, T/C [27]: 115%
viability, T/C [13]: 118%
viability, T/C [14]: 116%
viability, T/C [15]: 111%
viability, T/C [28]: 114%
viability, T/C [29]: 95.1%
viability, T/C [30]: 86.7%

From PubChem BioAssay AID1963864 (Molecular Pharmacology Branch, DTP, NCI, 2024)
